Test system: 454973-116-R2-J3-PDC spheroids, percent test/control viability
Test: Anticancer human tumor 454973-116-R2-J3-PDC patient-derived pancreatic carcinoma cell line growth inhibition [CLK]
Details: spheroids with HUVEC and MSC; for IC50: curve of first compound; for viability, T/C: stronger effect = lower value; active = viability on the fitted dose curve at most 10% of control; inactive = the rest
Method in brief: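 Patient-derived tumor cells grown as complex spheroids with HUVEC endothelial cells and mesenchymal stem cells, treated with drug combinations. Concentrations descend in half-log steps from near clinical Cmax, or from 10 microM if Cmax unknown.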
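Also: spheroids exposed to compounds for 7 days before readout.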

CC(C)CC(NC(=O)C(Cc1ccccc1)NC(=O)c1cnccn1)B(O)O (centres undefined) + CNC(=O)c1ccc(Nc2nc(OC3CCCC3)c3c(-c4ccc5nc(C)oc5c4)c[nH]c3n2)c(OC)c1
active: viability, T/C (second compound 0.0316 µM, first compound 0.00949 µM) 3.37% | viability, T/C (second compound 0.0316 µM, first compound 0.03 µM) 3.93% | viability, T/C (second compound 0.0316 µM, first compound 0.0949 µM) 1% | viability, T/C (second compound 0.0316 µM, first compound 0.3 µM) 1.85% | viability, T/C (second compound 0.1 µM, first compound 0.00949 µM) 0.31% | viability, T/C (second compound 0.1 µM, first compound 0.03 µM) 2.58% | viability, T/C (second compound 0.1 µM, first compound 0.0949 µM) 2.61% | viability, T/C (second compound 0.1 µM, first compound 0.3 µM) 0.65% | viability, T/C (second compound 0.316 µM, first compound 0.00949 µM) 1.42% | viability, T/C (second compound 0.316 µM, first compound 0.03 µM) 3.86% | viability, T/C (second compound 0.316 µM, first compound 0.0949 µM) 1.32% | viability, T/C (second compound 0.316 µM, first compound 0.3 µM) 0.81% | viability, T/C (second compound 1 µM, first compound 0.003 µM) 7.07% | viability, T/C (second compound 1 µM, first compound 0.00949 µM) 2.43% | viability, T/C (second compound 1 µM, first compound 0.03 µM) 2.96% | viability, T/C (second compound 1 µM, first compound 0.0949 µM) 3.35% | viability, T/C (second compound 1 µM, first compound 0.3 µM) 1.14% | viability, T/C (second compound 3.16 µM, first compound 0.003 µM) 3.95% | viability, T/C (second compound 3.16 µM, first compound 0.00949 µM) 1.54% | viability, T/C (second compound 3.16 µM, first compound 0.03 µM) 1.66% | viability, T/C (second compound 3.16 µM, first compound 0.0949 µM) 2.98% | viability, T/C (second compound 3.16 µM, first compound 0.3 µM) 0.23% | viability, T/C (second compound 10 µM, first compound 0.003 µM) 2.63% | viability, T/C (second compound 10 µM, first compound 0.00949 µM) 1.46% | viability, T/C (second compound 10 µM, first compound 0.03 µM) 3.63% | viability, T/C (second compound 10 µM, first compound 0.0949 µM) 1.96% | viability, T/C (second compound 10 µM, first compound 0.3 µM) 0.7%
1.08 nM: IC50 (second compound 0.316 µM)
2.9 nM: IC50 (second compound 0.1 µM)
< 0.949 nM: IC50 (second compound 1 µM) | IC50 (second compound 3.16 µM) | IC50 (second compound 10 µM)
2.55 nM: IC50 (second compound 0.0316 µM)
inactive: viability, T/C (second compound 0.0316 µM, first compound 0.000949 µM) 104% | viability, T/C (second compound 0.0316 µM, first compound 0.003 µM) 41% | viability, T/C (second compound 0.1 µM, first compound 0.000949 µM) 108% | viability, T/C (second compound 0.1 µM, first compound 0.003 µM) 48.3% | viability, T/C (second compound 0.316 µM, first compound 0.000949 µM) 54.1% | viability, T/C (second compound 0.316 µM, first compound 0.003 µM) 18.6% | viability, T/C (second compound 1 µM, first compound 0.000949 µM) 41.6% | viability, T/C (second compound 3.16 µM, first compound 0.000949 µM) 30.4% | viability, T/C (second compound 10 µM, first compound 0.000949 µM) 28.3%

CC1COCCN1c1cc(C2(S(C)(=N)=O)CC2)nc(-c2ccnc3[nH]ccc23)n1 (centres undefined) + CNC(=O)c1ccc(Nc2nc(OC3CCCC3)c3c(-c4ccc5nc(C)oc5c4)c[nH]c3n2)c(OC)c1
< 31.6 nM: IC50 (second compound 0.316 µM) | IC50 (second compound 1 µM) | IC50 (second compound 3.16 µM) | IC50 (second compound 10 µM)
inactive: viability, T/C (second compound 0.0316 µM, first compound 0.0316 µM) 96.7% | viability, T/C (second compound 0.0316 µM, first compound 0.1 µM) 103% | viability, T/C (second compound 0.0316 µM, first compound 0.316 µM) 97.8% | viability, T/C (second compound 0.0316 µM, first compound 1 µM) 101% | viability, T/C (second compound 0.0316 µM, first compound 3.16 µM) 73.3% | viability, T/C (second compound 0.0316 µM, first compound 10 µM) 34.2% | viability, T/C (second compound 0.1 µM, first compound 0.0316 µM) 103% | viability, T/C (second compound 0.1 µM, first compound 0.1 µM) 97.5% | viability, T/C (second compound 0.1 µM, first compound 0.316 µM) 94.7% | viability, T/C (second compound 0.1 µM, first compound 1 µM) 93.6% | viability, T/C (second compound 0.1 µM, first compound 3.16 µM) 84.4% | viability, T/C (second compound 0.1 µM, first compound 10 µM) 37.4% | viability, T/C (second compound 0.316 µM, first compound 0.0316 µM) 37% | viability, T/C (second compound 0.316 µM, first compound 0.1 µM) 43.9% | viability, T/C (second compound 0.316 µM, first compound 0.316 µM) 45.1% | viability, T/C (second compound 0.316 µM, first compound 1 µM) 40.1% | viability, T/C (second compound 0.316 µM, first compound 3.16 µM) 48.3% | viability, T/C (second compound 0.316 µM, first compound 10 µM) 29.5% | viability, T/C (second compound 1 µM, first compound 0.0316 µM) 27.9% | viability, T/C (second compound 1 µM, first compound 0.1 µM) 30.9% | viability, T/C (second compound 1 µM, first compound 0.316 µM) 30.5% | viability, T/C (second compound 1 µM, first compound 1 µM) 27.3% | viability, T/C (second compound 1 µM, first compound 3.16 µM) 25.3% | viability, T/C (second compound 1 µM, first compound 10 µM) 15.8% | viability, T/C (second compound 3.16 µM, first compound 0.0316 µM) 30.4% | viability, T/C (second compound 3.16 µM, first compound 0.1 µM) 24.3% | viability, T/C (second compound 3.16 µM, first compound 0.316 µM) 28.9% | viability, T/C (second compound 3.16 µM, first compound 1 µM) 28.1% | viability, T/C (second compound 3.16 µM, first compound 3.16 µM) 19.3% | viability, T/C (second compound 3.16 µM, first compound 10 µM) 12.3% | viability, T/C (second compound 10 µM, first compound 0.0316 µM) 29.8% | viability, T/C (second compound 10 µM, first compound 0.1 µM) 27.3% | viability, T/C (second compound 10 µM, first compound 0.316 µM) 27.5% | viability, T/C (second compound 10 µM, first compound 1 µM) 25.5% | viability, T/C (second compound 10 µM, first compound 3.16 µM) 17.4% | viability, T/C (second compound 10 µM, first compound 10 µM) 10.3%
7330 nM: IC50 (second compound 0.1 µM)
6280 nM: IC50 (second compound 0.0316 µM)
